# Values quoted from earlier work in patent US11406718B2, “Methods of detecting pancreobiliary ductal leaks” (CHIRHOCLIN, INC., priority 2012, dated 2022).
# No end group written: not given here.
# Assays:
# [1] = test system: pancreas
Substance,serious adverse drug reactions (human secretin stimulation),adverse reaction seen rarely (thousands of patients in pancreobiliary function testing with human secretin),"allergic reactions (human, in vivo)","dose safely given (human, in vivo) [µg/kg]","hemodynamic effects (human, in vivo)","largest dose administered in a study, found safe (human, in vivo) [µg]","risk of acute pancreatitis episodes (human, in vivo)",effect on pancreatic duct diameter ([1]; in vivo),effect on sphincter of Oddi ([1]; in vivo),effect on pancreatic juice ([1]; primary action)
human secretin,There has not been any serious reported adverse drug reaction,flushing of the face with stable vital signs,–,–,–,–,–,–,–,–
"secretin (HSDGTFTSELSRLRDSARLQRLLQGLV; ends and bridges not checked; UniProt P63298 33-59, looked up) [3055.5 MW (27 amino acid) gastrointestinal peptide hormone originally extracted from the porcine duodenum]",–,–,No allergic reactions have been reported,0.78,No significant hemodynamic effects have been observed,160,not known to increase the risk of acute pancreatitis episodes,increases the pancreatic duct diameter,causes sphincter of Oddi relaxation,increase the volume and bicarbonate content of pancreatic juice
